Patent publication US11981702B2, “Compounds for fluorescence sensing of duplex formation” (San Diego State University Research Foundation, priority 2016, dated 2024)
Where two headings read alike, the source gives them in different places. [8-DEA-tC] = 8-diethylamino tricyclic cytidine analogue (fluorescent), on 2'-deoxyribose

Columns and labels:
[1] = value reported by the Tor group; cited from earlier work
[2] = Quantum yield of fluorescence emission, comparative method of Williams et al., quinine sulfate standard (free nucleosides, single-stranded oligonucleotides); assay type: physicochemical
Procedure: (§1) Quantum yields of fluorescence emission were determined using the comparative method of Williams et. al. (Analyst 1983, 108, 1067) and a fluorescence standard of quinine sulfate in 0.1M H2SO4 (Table 1 and FIG. 2). The single-stranded oligonucleotides have quantum yields of fluorescence emission ranging from Φem=0.01-0.03, all brighter than the free 8-DEA-tC nucleoside by up to a factor of five. Addition of the complementary sequences and duplex formation results in further fluorescence increase in all sequences, up to Φem=0.12 for sequence GC. This quantum yield is 20-fold greater than that of the free 8-DEA-tC nucleoside, the largest such increase reported to date for a fluorescent nucleoside analogue.
(§2) All photophysical experiments were measured in a quartz sub-micro cuvette (10 mm path length) purchased from Starnacell Inc. Solutions were prepared in 1×PBS buffer at pH 7.4. Steady state emission scans were recorded using a PTI QuantaMaster QM-400 and absorbances were measured on a Shimadzu UV-1700 Pharmaspec spectrometer. Quantum yield measurements were performed the comparative method of Williams et. al. and measured in duplicate, at minimum.[7] Quinine sulfate in 0.1M H2SO4 was used as a reference standard for all photophysical measurements. Measurements by using a commercial sample of pyrrolo-dC to obtain a fluorescence quantum yield of 0.046, matching the value of 0.05 as reported by the Tor group were validated.[8] All measurements were taken with an absorbance range of 0.01-0.1. Subsequent dilutions were performed stepwise in order to obtain a minimum of five absorbance and emission spectra for quantum yield determinations. Representative data from these quantum yield measurements is plotted below. Quantum yield determinations were obtained using the following equation: […]
The determination of quantum yields for single-stranded oligonucleotides containing 8-DEA tC were calculated using the integrated emission intensity measurements of the single strand prior to the addition of the complementary strand, with the following equation. This method was validated by comparison with and confirmed with a SS quantum yield experiment.

[3] = UV/Vis absorption and steady state emission spectra; assay type: physicochemical; details: 1x PBS buffer pH 7.4
Procedure: as §2
Normalized absorption and emission plots of single-stranded oligonucleotides and double-stranded oligonucleotides in 1×PBS buffer at pH 7.4 were determined accordingly.

complementary strand [4] = assay: CD melting temperature of oligonucleotide duplexes (ellipticity at 255 nm); assay type: physicochemical
Procedure: UV CD spectra of oligonucleotide duplexes at a concentration of 5 μM in phosphate buffered saline (10 mM sodium phosphate, pH 7.4, […] potassium chloride, 137 mM sodium chloride) were collected at 25° C. in a 1 cm path length cell on an Aviv model 420 spectrophotometer equipped with a Peltier temperature controller. Background-subtracted spectra were smoothed and normalized to concentration using A260 nm as calculated from detector voltage using the following equation and converted to standard units. […] 255 nm was monitored from 15° C. to 75° C. at 1° C. increments. The TM of each duplex was calculated by fitting the raw data to a two-state model in Igor Pro. Melting curves are reported as fraction unfolded.

DNA-RNA heteroduplex = assay: Fluorescence turn-on response in DNA-RNA heteroduplex; assay type: physicochemical; details: 1x PBS buffer at pH 7.4
Excerpt: The RNA version (Y═OH) has been synthesized and characterized. […] The shape (conformation) of double-stranded nucleic acids can vary, and there are three major forms: A, B, and Z. Double-stranded DNA is naturally B form. Double-stranded RNA is naturally A form. And a DNA-RNA heteroduplex also naturally takes A form. For that reason, it is possible to use a DNA-RNA heteroduplex to predict fluorescence properties in pure RNA.

complementary strand [5] = assay: Quantum yield of fluorescence emission of double-stranded oligonucleotides after adding complementary strand; assay type: physicochemical; details: double-stranded oligonucleotide, 1x PBS buffer pH 7.4
Procedure: as §1, §2
Samples of double-stranded oligonucleotides were prepared using a known concentration of single-stranded oligonucleotide and adding a total of 2.4 equivalents of complementary strand at room temperature. A single-strand absorbance and emission were taken prior to the addition of the first 1.2 equivalents of complementary strand for purposes of single-strand calculation and verification of hybridization. An additional 1.2 equivalent is added after the first double-strand to ensure that complete hybridization was achieved. Thermal annealing procedures had no effect on the measurements as expected, given that these sequences were chosen to have no competing, stable secondary structures.

Cc1cc2cn([C@H]3C[C@H](O)[C@@H](CO)O3)c(=O)nc2[nH]1 [pyrrolo-dC, reference compound]
fluorescence quantum yield [1]: 0.05
fluorescence quantum yield ([2]; commercial sample, method validation): 0.046

AA: 5′-CGC-AAX-ATC-G-3′ (SEQ ID NO: 18), X = 8-DEA-tC (DNA CGCAACATCG; DNA, [8-DEA-tC] at 6, backbone not given here)
ds λmax,abs ([3]; double-stranded): 410 nm
ds λmax,em ([3]; double-stranded): 498 nm
λmax,abs (ss) ([3]; single-stranded): 415 nm
λmax,em (ss) ([3]; single-stranded): 497 nm
ΔTm (complementary strand [4]; Tm for natural DNA duplex subtracted from Tm for the 8-DEA-tC-containing duplex): -2.6 °C
Tm (complementary strand [4]; duplex 5 μM in PBS pH 7.4): 48.4 °C
ss Φem ([2]; single-stranded oligonucleotide, 1x PBS buffer pH 7.4): 0.008
fluorescence turn-on effect in DNA-RNA heteroduplex relative to double-stranded DNA (DNA-RNA heteroduplex): at least three times better
ds Φem (complementary strand [5]): 0.042
